# In patent US8404708B2, “Dual NK1/NK3 receptor antagonists” (Hoffmann-La Roche Inc., priority 2004, dated 2013):
# Tests used:
# [1] = biological target: human NK1 receptor (Homo sapiens, UniProt P25103); test: NK1 receptor binding, [3H]substance P displacement, CHO cell membranes; details: first value of the cell pKi NK1/NK3; human NK1 receptor, [3H]substance P
# [2] = biological target: T1, Recombinant human NK3 (hNK3) receptor (Homo sapiens, UniProt P29371); test: NK3 receptor binding, [3H]SR142801 displacement, membrane preparations; details: second value of the cell pKi NK1/NK3; hNK3 receptor, [3H]SR142801
# T1 construct: expressed in transfected cells
# T1 sequence (P29371 1-465): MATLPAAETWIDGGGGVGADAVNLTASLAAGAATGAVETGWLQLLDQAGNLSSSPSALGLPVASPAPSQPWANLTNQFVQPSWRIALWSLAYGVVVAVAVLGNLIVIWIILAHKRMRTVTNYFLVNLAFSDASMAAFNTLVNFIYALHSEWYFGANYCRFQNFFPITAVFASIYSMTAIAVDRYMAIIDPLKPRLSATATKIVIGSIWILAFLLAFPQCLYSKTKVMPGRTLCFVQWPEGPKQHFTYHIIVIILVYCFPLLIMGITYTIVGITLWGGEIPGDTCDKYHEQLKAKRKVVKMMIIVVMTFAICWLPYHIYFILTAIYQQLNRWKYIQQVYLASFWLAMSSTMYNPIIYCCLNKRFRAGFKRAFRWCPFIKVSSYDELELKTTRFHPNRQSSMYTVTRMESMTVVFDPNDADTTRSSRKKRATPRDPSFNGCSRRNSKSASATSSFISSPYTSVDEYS
# In short: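 Room-temperature, 90-min filtration binding assay using about 2.5 μg recombinant receptor membranes per well; separation on polyethyleneimine-treated glass-fibre (GF/C) filters and liquid scintillation read-out, with 10 μM SB222200 for nonspecific binding.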
# human NK1 receptor, sequence (P25103 whole entry): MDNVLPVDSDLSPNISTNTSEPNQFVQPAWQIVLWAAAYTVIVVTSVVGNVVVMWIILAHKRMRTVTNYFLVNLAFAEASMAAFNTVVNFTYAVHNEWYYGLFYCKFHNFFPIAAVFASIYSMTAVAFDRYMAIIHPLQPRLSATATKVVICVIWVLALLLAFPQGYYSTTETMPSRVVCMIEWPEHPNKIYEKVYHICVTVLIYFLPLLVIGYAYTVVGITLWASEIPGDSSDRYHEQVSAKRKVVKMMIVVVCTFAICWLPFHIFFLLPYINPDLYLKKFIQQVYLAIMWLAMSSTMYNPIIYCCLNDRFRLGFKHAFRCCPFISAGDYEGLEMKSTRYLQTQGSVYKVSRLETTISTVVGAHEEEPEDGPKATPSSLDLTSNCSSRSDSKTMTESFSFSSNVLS
Structure (SMILES),Ki [1] [nM],Ki [2] [nM]
"Cc1ccccc1-c1cc(NC[C@@H](C)O)ncc1N(C)C(=O)C(C)(C)c1cc(C(F)(F)F)cc(C(F)(F)F)c1 [Example 173, (R)-2-(3,5-Bis-trifluoromethyl-phenyl)-N-[6-(2-hydroxy-propylamino)-4-o-tolyl-pyridin-3-yl]-N-methyl-isobutyramide]",1.91,1.86
"Cc1cc(F)ccc1-c1cc(N2CCOC[C@H]2CO)ncc1N(C)C(=O)C(C)(C)c1cc(C(F)(F)F)cc(C(F)(F)F)c1 [Example 174, (R)-2-(3,5-Bis-trifluoromethyl-phenyl)-N-[4-(4-fluoro-2-methyl-phenyl)-6-(3-hydroxymethyl-morpholin-4-yl)-pyridin-3-yl]-N-methyl-isobutyramide]",1.66,2.57
Cc1ccccc1-c1cc(N2CCOC[C@H]2CO)ncc1N(C)C(=O)C(C)(C)c1cc(C(F)(F)F)cc(C(F)(F)F)c1 [Example 175],1.62,2.14
"Cc1ccccc1-c1cc(N2C[C@H](O)C[C@@H](O)C2)ncc1N(C)C(=O)C(C)(C)c1cc(C(F)(F)F)cc(C(F)(F)F)c1 [Example 179, (3R,5R)-2-(3,5-Bis-trifluoromethyl-phenyl)-N-(3,5-dihydroxy-4′-o-tolyl-3,4,5,6-tetrahydro-2H-[1,2′]bipyridinyl-5′-yl)-N-methyl-isobutyramide]",1.51,4.07
"CN(C(=O)C(C)(C)c1cc(C(F)(F)F)cc(C(F)(F)F)c1)c1cnc(N2C[C@H](O)C[C@@H](O)C2)cc1-c1ccccc1Cl [Example 180, (3R,5R)-2-(3,5-Bis-trifluoromethyl-phenyl)-N-[4′-(2-chloro-phenyl)-3,5-dihydroxy-3,4,5,6-tetrahydro-2H-[1,2′]bipyridinyl-5′-yl]-N-methyl-isobutyramide]",1.62,3.24
CN(C(=O)C(C)(C)c1cc(C(F)(F)F)cc(C(F)(F)F)c1)c1cnc(N2C[C@H](O)C[C@H](O)C2)cc1-c1ccccc1Cl [Example 181],2,3.39
"CN(C(=O)C(C)(C)c1cc(C(F)(F)F)cc(C(F)(F)F)c1)c1cnc(N2C[C@H](O)[C@@H](O)C2)cc1-c1ccccc1Cl [Example 182, (3S,4S)-2-(3,5-Bis-trifluoromethyl-phenyl)-N-[4-(2-chloro-phenyl)-6-(3,4-dihydroxy-pyrrolidin-1-yl)-pyridin-3-yl]-N-methyl-isobutyramide]",0.933,32.4
"Cc1ccccc1-c1cc(N2C[C@H](O)[C@@H](O)C2)ncc1N(C)C(=O)C(C)(C)c1cc(C(F)(F)F)cc(C(F)(F)F)c1 [Example 183, (3S,4S)-2-(3,5-Bis-trifluoromethyl-phenyl)-N-[6-(3,4-dihydroxy-pyrrolidin-1-yl)-4-o-tolyl-pyridin-3-yl]-N-methyl-isobutyramide]",1.1,26.9
"Cc1ccccc1-c1cc(N2C[C@@H](O)[C@@H](O)C2)ncc1N(C)C(=O)C(C)(C)c1cc(C(F)(F)F)cc(C(F)(F)F)c1 [Example 184, (3R,4S)-2-(3,5-Bis-trifluoromethyl-phenyl)-N-[6-(3,4-dihydroxy-pyrrolidin-1-yl)-4-o-tolyl-pyridin-3-yl]-N-methyl-isobutyramide]",1.23,20
"Cc1cc(F)ccc1-c1cc(N(C)C(CO)CO)ncc1N(C)C(=O)C(C)(C)c1cc(C(F)(F)F)cc(C(F)(F)F)c1 [Example 196, 2-(3,5-Bis-trifluoromethyl-phenyl)-N-{4-(4-fluoro-2-methyl-phenyl)-6-[(2-hydroxy-1-hydroxymethyl-ethyl)-methyl-amino]-pyridin-3-yl}-N-methyl-isobutyramide]",1.74,4.57
"Cc1cc(F)ccc1-c1cc(N2[C@H](CO)CC[C@@H]2CO)ncc1N(C)C(=O)C(C)(C)c1cc(C(F)(F)F)cc(C(F)(F)F)c1 [Example 197, (2R,5S)-N-[6-(2,5-Bis-hydroxymethyl-pyrrolidin-1-yl)-4-(4-fluoro-2-methyl-phenyl)-pyridin-3-yl]-2-(3,5-bis-trifluoromethyl-phenyl)-N-methyl-isobutyramide]",2.88,3.89
